We go through 5 compounds from ChEMBL document CHEMBL1201862, “PubChem BioAssay data set” (2004).

SMILES strings stand for the structures. The source made the active and inactive calls. A value given as a limit tells only on which side of the number the result lay.

The term AC50 denotes the concentration giving half of the maximal activity seen. By EC50 is commonly meant the concentration that produces a half-maximal response. For orientation: IC50 means the midpoint of a concentration-inhibition curve.

Test [1] concerns Vibrio harveyi. Nature of the test: Quorum Sensing, LuxS, LuxPQ Measured in Microorganism System Using Plate Reader - 2035-01_Inhibitor_DoseNoFile_DryPowder_Activity. [Related pubchem assays (depositor defined):AID2106]. The class given is functional, organism-based.
Test [2] concerns Vibrio harveyi. Nature of the test: LuxS/LuxPQ-dependent luminescence inhibition, V. harveyi – dry powder, set 2, dose response (AID 493072). Type of test: functional, organism-based.
Test [3] deals with T1, Heat shock factor protein 1 (Mus musculus, UniProt P38532).
T1 sequence (P38532 whole entry): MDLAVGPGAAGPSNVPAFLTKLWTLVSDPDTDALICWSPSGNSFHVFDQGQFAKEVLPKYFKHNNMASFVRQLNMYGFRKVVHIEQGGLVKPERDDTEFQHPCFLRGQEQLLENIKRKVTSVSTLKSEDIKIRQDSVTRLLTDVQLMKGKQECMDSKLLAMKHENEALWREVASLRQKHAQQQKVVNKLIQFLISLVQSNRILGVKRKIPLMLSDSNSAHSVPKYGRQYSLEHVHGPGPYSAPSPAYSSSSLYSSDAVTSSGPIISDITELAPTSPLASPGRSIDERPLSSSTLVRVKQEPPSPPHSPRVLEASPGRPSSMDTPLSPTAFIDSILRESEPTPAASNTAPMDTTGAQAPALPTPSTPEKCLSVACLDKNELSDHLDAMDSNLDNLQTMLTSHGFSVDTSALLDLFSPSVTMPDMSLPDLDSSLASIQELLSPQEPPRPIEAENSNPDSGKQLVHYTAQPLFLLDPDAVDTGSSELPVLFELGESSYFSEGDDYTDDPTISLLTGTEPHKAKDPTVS
Nature of the test: decrease of HSF1-responsive luciferase luminescence – cell-based, NIH3T3, dose retest, confirmation (AID 2382).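 Note: NIH3T3 fibroblasts with HSF1-driven luciferase reporter stressed by proteasome inhibitor MG132; luminescence from HSF1-driven luciferase expression after 8 hours of MG132 stress.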 The class given is functional.

Test [4] is described as follows: IC50 of Artemis nuclease activity blockers – biochemical, fluorescence intensity, dose response (AID 720701).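 Note: Artemis endonuclease enzyme.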 Type of test: functional.
In test [5] the target is T2, SUMO-activating enzyme (Homo sapiens, UniProt Q9UBT2). Nature of the test: blockers of UBC9-mediated SUMO conjugation – biochemical, AlphaScreen, SUMOylation inhibitor project, confirmation (AID 2018). Type of test: functional. On the technique in general: In Alpha technology, singlet oxygen from a donor bead excites a nearby acceptor bead.
T2 sequence (Q9UBE0 whole entry): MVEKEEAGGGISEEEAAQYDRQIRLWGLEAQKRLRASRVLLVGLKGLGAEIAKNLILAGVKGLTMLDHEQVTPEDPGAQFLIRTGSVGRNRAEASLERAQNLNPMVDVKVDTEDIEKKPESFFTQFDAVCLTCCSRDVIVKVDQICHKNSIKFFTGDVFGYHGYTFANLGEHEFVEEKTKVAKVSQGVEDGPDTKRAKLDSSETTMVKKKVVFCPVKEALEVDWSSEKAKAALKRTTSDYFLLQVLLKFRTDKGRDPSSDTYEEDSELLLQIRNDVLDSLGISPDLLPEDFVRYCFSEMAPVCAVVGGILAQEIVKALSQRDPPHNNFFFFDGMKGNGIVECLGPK
T2 sequence (Q9UBT2 whole entry): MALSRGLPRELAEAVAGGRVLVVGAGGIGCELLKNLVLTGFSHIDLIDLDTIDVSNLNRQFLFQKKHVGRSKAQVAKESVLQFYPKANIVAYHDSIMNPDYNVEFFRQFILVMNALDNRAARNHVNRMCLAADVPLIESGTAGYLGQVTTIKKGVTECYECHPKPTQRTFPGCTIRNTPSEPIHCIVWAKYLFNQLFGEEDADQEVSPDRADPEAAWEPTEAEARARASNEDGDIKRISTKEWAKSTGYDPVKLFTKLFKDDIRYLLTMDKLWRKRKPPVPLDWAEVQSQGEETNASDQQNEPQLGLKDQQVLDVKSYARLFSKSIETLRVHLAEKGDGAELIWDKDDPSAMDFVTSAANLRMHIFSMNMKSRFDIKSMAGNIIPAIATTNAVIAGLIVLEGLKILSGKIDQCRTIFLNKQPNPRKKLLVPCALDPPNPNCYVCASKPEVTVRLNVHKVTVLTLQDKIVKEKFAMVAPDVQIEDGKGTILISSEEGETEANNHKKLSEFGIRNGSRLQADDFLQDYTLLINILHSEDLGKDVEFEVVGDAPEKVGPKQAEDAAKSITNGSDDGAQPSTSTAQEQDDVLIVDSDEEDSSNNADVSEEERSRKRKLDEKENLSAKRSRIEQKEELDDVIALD
Test [6] addresses C-C chemokine receptor type 6 (Homo sapiens, UniProt P51684). Nature of the test: antagonism of CCR6 beta-arrestin recruitment – cell-based, luminescent beta-arrestin readout, dose response (AID 504728). Type of test: functional. In general terms: Recruitment of arrestin is a read-out of receptor activation apart from second messengers.
The next test concerns the target Beta-galactosidase (Escherichia coli, UniProt Q8VNN2). Nature of the test: detection-enzyme interference by beta-gal modulators – biochemical, E. coli enzyme, set 3, artefact control for CCR6 antagonist project, dose response (AID 504712). Type of test: functional.
Test [7] has as its target T2, SUMO-activating enzyme. Nature of the test: blockers of SAE1/SAE2–UBC9 SUMO transfer – biochemical, HTRF, uHTS, primary screen (AID 2006). Type of test: protein-complex assay. On the technique in general: TR-FRET usually uses a lanthanide donor and a delayed reading to cut background.
Test [8] deals with T3, Type-1 angiotensin II receptor (Homo sapiens, UniProt P30556).
T3 sequence (P30556 whole entry): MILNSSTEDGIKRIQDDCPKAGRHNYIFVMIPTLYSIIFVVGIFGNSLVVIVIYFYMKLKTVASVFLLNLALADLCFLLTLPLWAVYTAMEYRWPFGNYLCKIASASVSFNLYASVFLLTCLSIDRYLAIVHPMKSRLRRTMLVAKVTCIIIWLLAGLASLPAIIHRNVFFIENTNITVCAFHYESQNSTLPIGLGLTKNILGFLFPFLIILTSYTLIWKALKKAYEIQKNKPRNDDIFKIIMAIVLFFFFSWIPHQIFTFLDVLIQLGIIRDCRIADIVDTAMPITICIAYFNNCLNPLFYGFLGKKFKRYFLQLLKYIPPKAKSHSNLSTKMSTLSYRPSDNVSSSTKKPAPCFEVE
Nature of the test: agonist activity at AGTR1 – cell-based, uHTS hits, selectivity assay for APJ receptor agonist project, dose response (AID 488865).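 Note: beta-arrestin recruitment to AT1 measured by enzyme fragment complementation luminescence.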 The class given is functional.

A short description of test [9]: Luminescence Cell-Based Dose Retest to Confirm Inhibitors of Cancer Stem Cells. [Related pubchem assays (depositor defined):AID2717, AID2721]. Type of test: functional. The conditions noted are these: Homo sapiens.
Test [10] concerns the target Neurotensin receptor type 1 (Homo sapiens, UniProt P30989). Type of test: functional.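 Note: Image-based confirmatory dose-response assay measuring agonist activity at NTR1; NTR1-expressing U2OS osteosarcoma cells imaged for beta-arrestin GFP spot formation; agonist potency where compounds increase beta-arrestin recruitment.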
A short description of test [11]: reduction of Shn3 3'UTR-driven luciferase in osteoblasts – cell-based, Clone20 osteoblasts, firefly luciferase, cherry-picked, dose response (AID 624132).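 Note: firefly luciferase luminescence from reporter carrying the Shn3 3'UTR in osteoblasts.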 Type of test: functional.
Test [12] in a line: non-specific 3'UTR reporter inhibition in Clone20-Shn3RL – cell-based, Renilla luciferase, cherry-picked, counter-screen for Shn3 inhibitor project, dose response (AID 624133). Type of test: functional.
Test [13] deals with T4, Voltage-gated N-type calcium channel alpha-1B subunit/Amyloid beta A4 precursor protein-binding family A member 1 (Homo sapiens, UniProt Q00975+Q02410). Nature of the test: disruptors of Mint-PDZ/N-type channel peptide interaction – biochemical, HTRF, set 2, SAR follow-up (AID 434980). Type of test: functional.
T4 sequence (Q00975 whole entry): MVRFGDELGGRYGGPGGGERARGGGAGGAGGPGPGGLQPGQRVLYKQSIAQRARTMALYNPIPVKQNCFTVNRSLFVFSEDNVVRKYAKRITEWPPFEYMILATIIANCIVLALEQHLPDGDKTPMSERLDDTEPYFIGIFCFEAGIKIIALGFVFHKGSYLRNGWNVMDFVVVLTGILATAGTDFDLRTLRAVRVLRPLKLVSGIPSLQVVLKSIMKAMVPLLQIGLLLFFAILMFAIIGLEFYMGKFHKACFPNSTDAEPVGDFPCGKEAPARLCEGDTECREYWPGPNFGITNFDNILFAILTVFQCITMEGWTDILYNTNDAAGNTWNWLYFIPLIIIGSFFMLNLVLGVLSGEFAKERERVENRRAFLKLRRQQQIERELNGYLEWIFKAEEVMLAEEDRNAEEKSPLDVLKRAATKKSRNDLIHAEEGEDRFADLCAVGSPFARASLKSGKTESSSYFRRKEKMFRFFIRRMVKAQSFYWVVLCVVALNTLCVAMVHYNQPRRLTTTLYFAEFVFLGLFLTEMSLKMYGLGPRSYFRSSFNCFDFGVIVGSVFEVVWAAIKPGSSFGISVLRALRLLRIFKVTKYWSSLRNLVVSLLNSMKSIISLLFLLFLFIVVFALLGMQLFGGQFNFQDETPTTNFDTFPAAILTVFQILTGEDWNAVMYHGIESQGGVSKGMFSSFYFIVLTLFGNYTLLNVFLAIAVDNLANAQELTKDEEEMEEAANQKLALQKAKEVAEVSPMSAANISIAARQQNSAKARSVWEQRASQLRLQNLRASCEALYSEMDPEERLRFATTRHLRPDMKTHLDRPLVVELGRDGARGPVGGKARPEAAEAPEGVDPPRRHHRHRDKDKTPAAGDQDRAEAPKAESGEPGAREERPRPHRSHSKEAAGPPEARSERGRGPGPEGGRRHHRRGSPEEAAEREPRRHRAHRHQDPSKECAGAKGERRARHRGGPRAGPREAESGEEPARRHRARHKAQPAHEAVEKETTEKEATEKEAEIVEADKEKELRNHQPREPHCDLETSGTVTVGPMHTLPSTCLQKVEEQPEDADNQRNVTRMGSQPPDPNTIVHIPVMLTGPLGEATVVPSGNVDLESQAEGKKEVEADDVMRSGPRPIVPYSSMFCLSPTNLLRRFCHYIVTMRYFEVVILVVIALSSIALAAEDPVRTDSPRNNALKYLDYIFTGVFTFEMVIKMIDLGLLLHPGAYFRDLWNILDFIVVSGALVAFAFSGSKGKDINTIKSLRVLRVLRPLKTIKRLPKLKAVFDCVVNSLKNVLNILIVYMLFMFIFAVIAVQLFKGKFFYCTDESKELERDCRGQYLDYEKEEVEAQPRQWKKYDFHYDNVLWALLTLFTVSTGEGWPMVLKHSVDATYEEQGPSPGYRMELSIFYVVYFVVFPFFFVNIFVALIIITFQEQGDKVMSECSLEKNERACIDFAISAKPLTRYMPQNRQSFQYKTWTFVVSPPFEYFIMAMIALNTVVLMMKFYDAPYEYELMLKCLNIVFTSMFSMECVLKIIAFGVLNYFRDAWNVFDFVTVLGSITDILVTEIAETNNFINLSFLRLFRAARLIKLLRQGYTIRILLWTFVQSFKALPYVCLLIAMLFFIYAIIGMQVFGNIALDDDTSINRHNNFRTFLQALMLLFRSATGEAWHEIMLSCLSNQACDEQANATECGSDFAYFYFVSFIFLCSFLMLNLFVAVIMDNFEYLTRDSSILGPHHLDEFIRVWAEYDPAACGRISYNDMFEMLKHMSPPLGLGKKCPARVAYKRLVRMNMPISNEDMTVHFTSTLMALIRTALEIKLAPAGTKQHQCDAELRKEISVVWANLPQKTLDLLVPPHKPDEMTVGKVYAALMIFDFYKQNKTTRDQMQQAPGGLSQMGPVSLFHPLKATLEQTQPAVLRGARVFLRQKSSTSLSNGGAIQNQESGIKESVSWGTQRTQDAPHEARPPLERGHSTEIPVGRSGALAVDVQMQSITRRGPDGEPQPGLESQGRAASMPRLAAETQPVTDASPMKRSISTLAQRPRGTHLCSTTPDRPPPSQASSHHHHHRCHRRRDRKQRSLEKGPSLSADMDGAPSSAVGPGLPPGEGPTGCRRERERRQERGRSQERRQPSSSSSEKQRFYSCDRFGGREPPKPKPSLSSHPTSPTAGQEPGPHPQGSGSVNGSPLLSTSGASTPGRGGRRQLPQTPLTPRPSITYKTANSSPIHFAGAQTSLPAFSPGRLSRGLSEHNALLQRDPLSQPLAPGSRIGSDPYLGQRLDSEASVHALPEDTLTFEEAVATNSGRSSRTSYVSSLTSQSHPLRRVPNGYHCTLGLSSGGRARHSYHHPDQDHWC
T4 sequence (Q02410 whole entry): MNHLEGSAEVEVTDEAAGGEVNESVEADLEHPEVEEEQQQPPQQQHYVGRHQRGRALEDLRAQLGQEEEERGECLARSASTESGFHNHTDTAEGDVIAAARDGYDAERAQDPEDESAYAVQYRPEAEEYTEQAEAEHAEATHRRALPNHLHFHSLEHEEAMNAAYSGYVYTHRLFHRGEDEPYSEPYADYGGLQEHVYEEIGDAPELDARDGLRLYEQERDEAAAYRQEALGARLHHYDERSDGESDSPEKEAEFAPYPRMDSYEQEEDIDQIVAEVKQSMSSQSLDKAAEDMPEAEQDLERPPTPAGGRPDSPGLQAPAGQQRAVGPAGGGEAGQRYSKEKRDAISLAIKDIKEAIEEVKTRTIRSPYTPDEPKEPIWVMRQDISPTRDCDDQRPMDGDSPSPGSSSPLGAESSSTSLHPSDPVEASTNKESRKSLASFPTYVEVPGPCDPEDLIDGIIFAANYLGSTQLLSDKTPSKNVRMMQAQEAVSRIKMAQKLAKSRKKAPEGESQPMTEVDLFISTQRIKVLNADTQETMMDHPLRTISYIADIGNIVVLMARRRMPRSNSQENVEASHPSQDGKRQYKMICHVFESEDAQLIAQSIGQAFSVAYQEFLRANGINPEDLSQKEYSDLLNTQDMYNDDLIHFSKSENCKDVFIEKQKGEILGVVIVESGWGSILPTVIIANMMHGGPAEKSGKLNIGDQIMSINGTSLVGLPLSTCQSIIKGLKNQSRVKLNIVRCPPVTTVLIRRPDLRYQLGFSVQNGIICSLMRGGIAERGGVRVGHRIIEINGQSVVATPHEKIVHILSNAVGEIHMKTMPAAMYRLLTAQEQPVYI
For test [14], the target named is T4, Voltage-gated N-type calcium channel alpha-1B subunit/Amyloid beta A4 precursor protein-binding family A member 1. Nature of the test: disruptors of Mint-PDZ/N-type channel peptide interaction – biochemical, HTRF, SAR follow-up (AID 2489). Type of test: functional.
In the next test the target is SUMO E1/E2 (Homo sapiens, UniProt P63279+Q9UBE0+Q9UBT2). Nature of the test: SAR analysis of SUMOylation using HTRF in an in-Vitro dose response assay. [Related pubchem assays (depositor defined):AID2006, AID2011, AID2018, AID2069, AID2658]. The class given is functional.
For the next test, the target named is Neutrophil collagenase (Homo sapiens, UniProt P22894). Nature of the test: potency against MMP13, MMP2, MMP3, MMP14 – biochemical, probe development, late stage results, selectivity assay for MMP13 inhibitor project, late-stage follow-up, panel member MMP-8 [IC50 Assay] (AID 2067).
Chain of Neutrophil collagenase (P22894 whole entry): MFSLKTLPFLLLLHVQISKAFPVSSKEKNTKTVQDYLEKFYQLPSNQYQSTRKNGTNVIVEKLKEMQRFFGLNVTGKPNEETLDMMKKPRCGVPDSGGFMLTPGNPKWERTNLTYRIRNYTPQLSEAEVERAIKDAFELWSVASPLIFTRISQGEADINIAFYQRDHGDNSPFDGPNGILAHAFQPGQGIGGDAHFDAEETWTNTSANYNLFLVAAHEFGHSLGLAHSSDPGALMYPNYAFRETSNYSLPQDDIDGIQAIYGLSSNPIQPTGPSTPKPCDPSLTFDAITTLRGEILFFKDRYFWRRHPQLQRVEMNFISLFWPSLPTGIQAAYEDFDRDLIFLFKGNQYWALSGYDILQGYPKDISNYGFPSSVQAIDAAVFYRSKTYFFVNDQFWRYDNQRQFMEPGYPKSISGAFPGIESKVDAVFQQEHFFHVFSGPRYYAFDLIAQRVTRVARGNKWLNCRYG
In a further test the target is Cytochrome P450 2C9 (Homo sapiens, UniProt P11712).
The target of test [15] is G-protein coupled receptor 35 (Homo sapiens, UniProt Q9HC97). Nature of the test: inhibition of zaprinast-stimulated GPR35 beta-arrestin translocation – imaging, U2OS, beta-arrestin-GFP, zaprinast agonist, primary screen (AID 2058).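 Note: antagonist potency meaning inhibition of agonist-induced arrestin redistribution.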 The class given is functional.
Chain of G-protein coupled receptor 35 (Q9HC97 whole entry): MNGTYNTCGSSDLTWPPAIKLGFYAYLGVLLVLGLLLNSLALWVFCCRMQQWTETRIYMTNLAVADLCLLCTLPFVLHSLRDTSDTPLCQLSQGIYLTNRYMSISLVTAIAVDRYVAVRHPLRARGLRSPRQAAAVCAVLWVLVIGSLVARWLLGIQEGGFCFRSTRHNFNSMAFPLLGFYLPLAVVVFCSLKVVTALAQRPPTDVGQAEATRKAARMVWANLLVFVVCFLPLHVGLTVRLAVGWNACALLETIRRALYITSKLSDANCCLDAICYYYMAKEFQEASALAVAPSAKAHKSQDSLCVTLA
Test [16] addresses G-protein coupled receptor 55 (Homo sapiens, UniProt Q9Y2T6). Nature of the test: inhibition of LPI-stimulated GPR55 beta-arrestin translocation – imaging, U2OS, beta-arrestin-GFP, LPI agonist, primary screen (AID 2013).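 Note: antagonist potency measured as reduced agonist-driven arrestin aggregation.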 Type of test: functional.

Take `COc1cc(NC(=O)CN2C(=O)NC(c3ccccc3)(c3ccccc3)C2=O)cc(OC)c1`: the half-maximal activity concentration (AC50) in the test on Vibrio harveyi [1] is 0.594 µM (active); with Vibrio harveyi [2], 0.77 µM (active); in the test on Vibrio harveyi [2] (Vibrio harveyi) it was 0.671 µM (active). In addition, the EC50 in test [3] is > 195 µM (not active).
On to `CC1=NOC(=O)/C1=C\c1ccc(-c2cc(Cl)ccc2Cl)o1`, for which the IC50 in test [4] is > 20 µM (inactive); at SUMO-activating enzyme [5] it was 4.89 µM (active); in [6], > 66.6 µM (inactive); on Beta-galactosidase it was > 66.6 µM (inactive); on SUMO-activating enzyme [7] it was 11.5 µM (active). Further, the EC50 is > 100 µM (inactive) in test [8] and 7.5 µM (active) in test [10]. Moreover, the AC50 in test [9] is 1.04 µM (active); in test [11], 5.69 µM (active); in test [12] it was 9.55 µM (active).
Take `COc1ccc(CNC(=O)COC(=O)c2cc(-c3ccc(C)o3)nc3ccccc23)cc1`: the figures for the IC50 (in test [13]; in test [14]; at SUMO E1/E2) were > 56.8 µM (inactive), > 56.8 µM (inactive) and 4 µM (active), respectively.
For `O=c1[nH]c(SCCc2ccccc2)nc2c1CCC2`, the IC50 on Neutrophil collagenase is > 39.8 µM (inactive).
Turning to `CC(=O)Oc1ccc(C(c2ccc(OC(C)=O)cc2)c2ccccn2)cc1` [BISACODYL], the AC50 at Cytochrome P450 2C9 was 15.8 µM (inconclusive). Besides, the IC50 in test [15] is > 32 µM (inactive); in test [16], 0.908 µM (active).
